Laboratory results taken from patent US20040229336A1, “Method for in vitro culture of viruses of the togaviridae and flaviviridae families and uses” (Bio Merieux, priority 1999, published 2004).

Legend:
HCV = experiment: Observation in patients infected both with HIV and with HCV taking HIV protease inhibitors; format: in vivo, human
Text: For this reason, it is advantageous to add to the method of the invention at least one apoptosis-modulating agent.

hepatitis C virus = experiment: Infection of PLC/PRF/5 cells with HCV-positive serum or LVP fractions, HCV genome in culture supernatants by semi-nested RT-PCR; format: cell-based, human
Method: The culture medium used is DMEM medium (marketed by Gibco BRL) supplemented with: 1 mM of sodium pyruvate (Gibco), 1% of nonessential amino acids (Boehringer Mannheim), 2 mM of glutamine (Gibco BRL), 200 U/ml of penicillin (bioMérieux), […] of streptomycin (bioMérieux) and 10% of calf serum (Boehringer).
The cells originate from the PLC/PRF/5 cell line (Alexander cells) (ATCC reference: CRL 8024), which is a line established from a human hepatocarcinoma. This line, which has integrated a defective hepatitis B genome, secretes the HBs antigen of the hepatitis B virus but no infectious virus. The cells are cultured in the complete DMEM medium (Gibco-BRL) supplemented with 10% of foetal calf serum, mentioned above. The cells are washed with PBS (Gibco-BRL) preheated to 37° C. 1 ml of DMEM supplemented with 0.2% of BSA (Sigma) and 50 μg/ml of lipoproteins originating from each fraction or 100 μl of serum filtered over a 0.45μ membrane are added. Simultaneously, a solution of oleic acid in isopropanol, prepared beforehand (100 mM), is added in a concentration range of 0.1 to 0.8 mM. The cells are then subjected to incubation for 3 hours at 37° C. under a 5% CO2 atmosphere. The medium is then replaced with complete DMEM medium supplemented with 10% of foetal calf serum. The cells are returned to the incubator under the conditions described above. […]

LSR receptor = target: T1, LSR receptor (Homo sapiens, UniProt Q86X29); experiment: Kinetics of attachment of the LVPs to the LSR receptor of hepatocytes (PLC/PRF/5 cells), quantitative RT-PCR of HCV RNA; format: cell-based; settings: 0.5 mM oleate vs without oleate, +4° C., 1 to 9 hours
T1 construct: endogenous in cells; host or cells: PLC/PRF/5 human hepatocarcinoma cells
T1 sequence (Q86X29 1-649): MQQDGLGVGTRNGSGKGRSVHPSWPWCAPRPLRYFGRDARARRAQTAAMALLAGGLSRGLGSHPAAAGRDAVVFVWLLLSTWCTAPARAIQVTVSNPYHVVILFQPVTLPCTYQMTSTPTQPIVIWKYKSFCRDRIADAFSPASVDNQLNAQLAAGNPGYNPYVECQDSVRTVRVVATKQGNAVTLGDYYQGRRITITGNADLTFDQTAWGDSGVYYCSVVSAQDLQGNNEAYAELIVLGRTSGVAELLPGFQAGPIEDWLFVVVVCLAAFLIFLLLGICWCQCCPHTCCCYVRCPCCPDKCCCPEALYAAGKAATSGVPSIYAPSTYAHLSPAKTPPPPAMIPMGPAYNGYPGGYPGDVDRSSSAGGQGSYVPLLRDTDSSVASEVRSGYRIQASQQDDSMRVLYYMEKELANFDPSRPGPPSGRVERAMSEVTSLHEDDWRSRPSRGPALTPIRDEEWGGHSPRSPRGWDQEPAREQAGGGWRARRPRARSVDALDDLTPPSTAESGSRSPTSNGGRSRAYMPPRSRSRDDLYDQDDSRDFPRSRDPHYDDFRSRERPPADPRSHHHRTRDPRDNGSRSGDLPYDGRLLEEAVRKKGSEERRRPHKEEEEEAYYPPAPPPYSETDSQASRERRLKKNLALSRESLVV
Method: A fraction containing LVPs with a density of between 1.025 g/ml and 1.055 g/ml was obtained from an HCV-positive serum as described in example 1.
The amount of proteins present in the LVP fraction was determined by the Lowry method using the “Protein Assay” kit (Sigma Diagnostics) and the viral titer was evaluated by quantification of the HCV RNA by RT-PCR and real-time fluorescence detection (LightCycler™, Roche) (Wittwer et al., Biotechniques, 22: 176-181 (1997)).
The PLC/PRF/5 cell line, described in example 2 and cultured in DMEM medium-10% SVF, was used for studying the attachment of LVPs to the LSR receptor in the presence or absence of oleate.
The results were obtained according to the following protocol:
The PLC/PRF/5 cells were seeded at 1 million cells/well, so as to obtain, after incubation for 24 hours at 37° C., 5% CO2, approximately 80% confluence.
Two washes in cold 1×PBS buffer were carried out, and then 1 ml of cold complete DMEM medium containing 0.2% of BSA is added to the PLC cells maintained on a bed of ice.
The LVP fraction (i.e. 10 mg of proteins and 1.7×10^6 of copies of HCV RNA) is added to the cells in the presence or absence of 0.5 mM oleate. […]
An incubation was carried out at +4° C. for a period of time ranging from 1 to 9 hours. […] The RNAs were then purified using this same kit and analyzed by quantitative RT-PCR (LightCycler™). […]

CC(C)c1nc(CN(C)C(=O)N[C@H](C(=O)N[C@@H](Cc2ccccc2)C[C@H](O)[C@H](Cc2ccccc2)NC(=O)OCc2cncs2)C(C)C)cs1 [Ritonavir]
HCV viremia and hepatic cytolysis (HCV): increase in the HCV virema associated with hepatic cytolysis

CCCCCCCC/C=C\CCCCCCCC(=O)O [oleic acid]
pathway for endocytosis of the LVPs at the time of the infection (hepatitis C virus; LVP fractions with densities <1.0063, 1.0063-1.063 and >1.063 g/ml): facilitates the pathway for endocytosis of the LVPs | presence of the HCV genome in the culture supernatants (hepatitis C virus; infection with 100 μl of serum of patients no. 1 and no. 2, with vs without 0.5 mM oleic acid): detected at a higher frequency | attachment of the LVPs to the LSR receptor (number of HCV RNA copies) (LSR receptor): significantly increased
